# Results published in patent publication US8257696B2, “Indefinite culture of human adult glia without immortalization and therapeutic uses thereof” (University of Florida Research Foundation, Inc., priority 2004, dated 2012).
# “Also recorded” adds a separate entry of the source.
# What was measured:
# Format in all cases: cell-based, human
# [1] = test system: high passage cells (HES astroglia); assay: Senescence-associated β-galactosidase (SA-β-gal) expression after growth arrestors; details: evaluated 7 days after addition, 1 μg/ml aphidicolin or 20 μM EGCG, vs age-matched controls
# Protocol: Primary tissue was gathered from individuals undergoing surgery related to medically intractable temporal lobe epilepsy. Primary tissue was removed and stored overnight in ice-cold DMEM/F-12 medium containing 20 mg/ml penicillin, […] streptomycin., and 25 ng/ml amphotericin B (collectively 1× antibiotics). Hippocampus (containing hilus) and temporal cortex (not containing subventricular zone) were microdissected from biopsied tissue samples (n=4, data presented from person). Dissected tissues were placed in 1× phosphate buffered saline (PBS, pH 7.3) lacking CaCl2 or MgCl2, and were manually dissociated into 1 mm^3 pieces under sterile conditions. Tissues were collected and resuspended in 0.005% trypsin (15 min, 37° C., pH 7.3), and were further triturated using restricted bore pipetting. Cells were collected, resuspended in proliferative media, and seeded onto uncoated T75 culture flasks overnight (12 hr, 37° C., 5% humidified CO2). […] Cells were dissociated with 0.005% trypsin, counted (using trypan dye exclusion as viability criteria), and were replated onto uncoated 60 mm plastic dishes. […] To assess viability of cells in various growth conditions, equal numbers of culture-matched cells were seeded into triplicate wells of various proliferative conditions, and counted 7, 14, and 21 days later. […] Significance (p<0.05) was calculated using a student's t-test. […]
# [2] = test system: high passage cells (HES astroglia); assay: Growth rate by cell counting after reversible growth inhibitors and washout; details: for proliferation upon removal of growth inhibitors: after removal of inhibitor; for rate of cellular proliferation (growth rate): high passage cells, measured 7 days after addition
# Protocol: Primary tissue was gathered from individuals undergoing surgery related to medically intractable temporal lobe epilepsy. Primary tissue was removed and stored overnight in ice-cold DMEM/F-12 medium containing 20 mg/ml penicillin, […] streptomycin., and 25 ng/ml amphotericin B (collectively 1× antibiotics). Hippocampus (containing hilus) and temporal cortex (not containing subventricular zone) were microdissected from biopsied tissue samples (n=4, data presented from person). Dissected tissues were placed in 1× phosphate buffered saline (PBS, pH 7.3) lacking CaCl2 or MgCl2, and were manually dissociated into 1 mm^3 pieces under sterile conditions. Tissues were collected and resuspended in 0.005% trypsin (15 min, 37° C., pH 7.3), and were further triturated using restricted bore pipetting. Cells were collected, resuspended in proliferative media, and seeded onto uncoated T75 culture flasks overnight (12 hr, 37° C., 5% humidified CO2). Unattached cells were collected and seeded onto uncoated 60 mm plastic dishes in proliferative media. Proliferative media was comprised of DMEM/F-12 containing N2 supplements, 35 μg/ml bovine pituitary extract, 1× antibiotics, 5% fetal calf serum (FCS), and 40 ng/ml of EGF and FGF. 20 ng of EGF and FGF were supplemented twice daily. When necessary, media was changed every fourth day. Cells were frozen in aliquots of 1 million cells in DMEM/F-12 containing 10% FCS and 20% dimethyl sulfoxide (v/v). Cells were passaged 1:2 when confluent. Cells were dissociated with 0.005% trypsin, counted (using trypan dye exclusion as viability criteria), and were replated onto uncoated 60 mm plastic dishes. For growth monitoring experiments, 1 μg/ml aphidicolin or 20 μM EGCG were added to culture media 1 hour after plating. Irradiated cells were treated with a single 3 Gy dose of X-irradiation. Following the period of application, cells were washed in 1×PBS and were resuspended in proliferative media or fixed. To assess viability of cells in various growth conditions, equal numbers of culture-matched cells were seeded into triplicate wells of various proliferative conditions, and counted 7, 14, and 21 days later. For growth factor analysis, EGF and/or FGF were removed for seven days, and surviving cells were returned to proliferative media. Significance (p<0.05) was calculated using a student's t-test. In vitro images of cultured cells were captured using a Nikon Eclipse TS-100 bright field microscope and a Spot 3.1 digital camera (Diagnostic Instruments).
# Isolation and Culture of Tissue: Primary tissue was gathered from individuals undergoing surgery related to medically intractable temporal lobe epilepsy. […]
# TERT = assay: Telomerase (TERT) expression after growth arrest; details: high passage cells, measured 7 days after addition
# Protocol: Cells were plated on coverslips coated with poly-L-lysine or polyornithine and laminin and grown to confluency in proliferative media. Cells were fixed with 4% paraformaldehyde ([…], 25° C.). After washing with PBS, cells were blocked 20 min in PBS containing 10% FCS, 5% normal goat serum, and 0.01% Triton X-100. Primary antibodies were applied for either 1 hour at 25° C. or overnight at 4° C. in PBS containing 10% FCS and 0.01% Triton X-100. Primary antibodies: β III tubulin (mouse monoclonal, 1:300, Promega), BrdU (mouse monoclonal, 1:50, Becton-Dickinson), CNPase (mouse monoclonal, 1:250, Chemicon), GFAP (rabbit polyclonal, 1:600, DAKO), glutamine synthetase (rabbit polyclonal, 1:100, AbCam), map2a-c (chicken polyclonal, 1:30,000), nestin (mouse monoclonal, 1:50, Chemicon), O4 (mouse monoclonal IgM, 1:150, Chemicon), S100-β (rabbit polyclonal, 1:100, Swant), telomerase (rabbit polyclonal, 1:200, Santa Cruz). Secondary antibodies were applied for 45 min at 25° C. in PBS containing 10% FCS and 0.01% Triton X-100. […] SA-βGal expression was assessed 7 days after addition of growth arrestors as described (Dimri, G. P. et al. Proc Nat'l Acad Sci U S A 92, 9363-7 (1995)). […] Fluorescence microscopy was performed on a Leica DMLB upright microscope and images were captured with a Spot RT Color CCD camera (Diagnostic Instruments). […]
Molecule,SA-β-gal expression [1],proliferation upon removal of growth inhibitors [2],rate of cellular proliferation (growth rate) [2],TERT (telomerase) expression (TERT)
C[C@@]1(CO)[C@H](O)CC[C@@]2(C)[C@H]1CC[C@H]1C[C@@H]3C[C@@]12CC[C@]3(O)CO [aphidicolin],marked increase in SA-β-Gal; also recorded: significantly higher levels of SA-β-gal than age-matched controls,return to previous levels of proliferation,lose their ability to proliferate in culture,continue to express telomerase
epigallocatechin-3-gallate [EGCG],marked increase in SA-β-Gal; also recorded: express SA-β-Gal,return to previous levels of proliferation,lose their ability to proliferate in culture; also recorded: significantly reduced; also recorded: significant reduction,continue to express telomerase; also recorded: remained detectable; also recorded: remained ubiquitous
